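Each compound was tested at five concentrations against cells in 96-well plates for 48 hours. GI50: concentration for 50% inhibition of growth. At the TGI there is no net growth.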
Experiments:
Assay in all cases: DTP human tumour cell line panel, 48 h
786-0 renal = system: 786-0 renal
A498 renal = system: A498 renal
A549 NSCLC = system: A549 NSCLC
ACHN renal = system: ACHN renal
BT-549 breast = system: BT-549 breast
CAKI-1 renal = system: CAKI-1 renal
CCRF-CEM leukemia = system: CCRF-CEM leukemia
DU-145 prostate = system: DU-145 prostate
EKVX NSCLC = system: EKVX NSCLC
HCC-2998 colon = system: HCC-2998 colon
HCT-116 colon = system: HCT-116 colon
HCT-15 colon = system: HCT-15 colon
HL-60(TB) leukemia = system: HL-60(TB) leukemia
HOP-62 NSCLC = system: HOP-62 NSCLC
HOP-92 NSCLC = system: HOP-92 NSCLC
HS 578T breast = system: HS 578T breast
HT29 colon = system: HT29 colon
IGROV1 ovarian = system: IGROV1 ovarian
KM12 colon = system: KM12 colon
LOX IMVI melanoma = system: LOX IMVI melanoma
M14 melanoma = system: M14 melanoma
MALME-3M melanoma = system: MALME-3M melanoma
MCF7 breast = system: MCF7 breast
MDA-MB-231 breast = system: MDA-MB-231 breast
MDA-MB-435 = system: MDA-MB-435
MOLT-4 leukemia = system: MOLT-4 leukemia
NCI-H226 lung = system: NCI-H226 lung
NCI-H23 lung = system: NCI-H23 lung
NCI-H460 lung = system: NCI-H460 lung
NCI-H522 lung = system: NCI-H522 lung
NCI/ADR-RES ovarian = system: NCI/ADR-RES ovarian
OVCAR-3 ovarian = system: OVCAR-3 ovarian
OVCAR-4 ovarian = system: OVCAR-4 ovarian
OVCAR-5 ovarian = system: OVCAR-5 ovarian
OVCAR-8 ovarian = system: OVCAR-8 ovarian
PC-3 prostate = system: PC-3 prostate
RPMI-8226 leukemia = system: RPMI-8226 leukemia
RXF 393 renal = system: RXF 393 renal
SF-268 CNS = system: SF-268 CNS
SF-539 CNS = system: SF-539 CNS
SK-MEL-2 melanoma = system: SK-MEL-2 melanoma
SK-MEL-28 melanoma = system: SK-MEL-28 melanoma
SK-MEL-5 melanoma = system: SK-MEL-5 melanoma
SK-OV-3 ovarian = system: SK-OV-3 ovarian
SN12C renal = system: SN12C renal
SNB-19 CNS = system: SNB-19 CNS
SNB-75 CNS = system: SNB-75 CNS
SR leukemia = system: SR leukemia
SW-620 colon = system: SW-620 colon
T-47D breast = system: T-47D breast
TK-10 renal = system: TK-10 renal
U251 CNS = system: U251 CNS
UACC-257 melanoma = system: UACC-257 melanoma
UACC-62 melanoma = system: UACC-62 melanoma
UO-31 renal = system: UO-31 renal

Clc1ccc(C(Cn2ccnc2)OCc2ccsc2Cl)c(Cl)c1 (centres undefined)
GI50 (786-0 renal): 2.97 µM
TGI (786-0 renal): 9.89 µM
GI50 (A498 renal): 2.33 µM
TGI (A498 renal): 13.9 µM
GI50 (A549 NSCLC): 3.12 µM
TGI (A549 NSCLC): 14.2 µM
GI50 (ACHN renal): 4.17 µM
TGI (ACHN renal): 15 µM
GI50 (BT-549 breast): 2.92 µM
TGI (BT-549 breast): 9.01 µM
GI50 (CAKI-1 renal): 2.05 µM
TGI (CAKI-1 renal): 7.36 µM
GI50 (CCRF-CEM leukemia): 2.4 µM
TGI (CCRF-CEM leukemia): 7.74 µM
GI50 (DU-145 prostate): 7.69 µM
TGI (DU-145 prostate): 20.6 µM
GI50 (EKVX NSCLC): 2.51 µM
TGI (EKVX NSCLC): 13.4 µM
GI50 (HCC-2998 colon): 2.73 µM
TGI (HCC-2998 colon): 9.46 µM
GI50 (HCT-116 colon): 2.84 µM
TGI (HCT-116 colon): 10.6 µM
GI50 (HCT-15 colon): 3.95 µM
TGI (HCT-15 colon): 14.2 µM
GI50 (HL-60(TB) leukemia): 1.82 µM
TGI (HL-60(TB) leukemia): 4.96 µM
GI50 (HOP-62 NSCLC): 4.92 µM
TGI (HOP-62 NSCLC): 16.9 µM
GI50 (HOP-92 NSCLC): 1.6 µM
TGI (HOP-92 NSCLC): 5.93 µM
GI50 (HS 578T breast): 4.44 µM
TGI (HS 578T breast): > 100 µM
GI50 (HT29 colon): 2.73 µM
TGI (HT29 colon): 9.34 µM
GI50 (IGROV1 ovarian): 3.15 µM
TGI (IGROV1 ovarian): 14 µM
GI50 (KM12 colon): 3.01 µM
TGI (KM12 colon): 13.5 µM
GI50 (LOX IMVI melanoma): 2.51 µM
GI50 (M14 melanoma): 2.72 µM
TGI (M14 melanoma): 8.27 µM
GI50 (MALME-3M melanoma): 2.62 µM
TGI (MALME-3M melanoma): 8.62 µM
GI50 (MCF7 breast): 3.24 µM
TGI (MCF7 breast): 14.4 µM
GI50 (MDA-MB-231 breast): 4.34 µM
TGI (MDA-MB-231 breast): 18.6 µM
GI50 (MDA-MB-435): 2.16 µM
TGI (MDA-MB-435): 5.59 µM
GI50 (MOLT-4 leukemia): 2.4 µM
TGI (MOLT-4 leukemia): 10.5 µM
GI50 (NCI-H226 lung): 5.62 µM
TGI (NCI-H226 lung): 30.7 µM
GI50 (NCI-H23 lung): 2.18 µM
TGI (NCI-H23 lung): 8.77 µM
GI50 (NCI-H460 lung): 2.84 µM
TGI (NCI-H460 lung): 10.1 µM
GI50 (NCI-H522 lung): 2.7 µM
TGI (NCI-H522 lung): 9.52 µM
GI50 (NCI/ADR-RES ovarian): 1.91 µM
TGI (NCI/ADR-RES ovarian): 5.71 µM
GI50 (OVCAR-3 ovarian): 5.11 µM
TGI (OVCAR-3 ovarian): 16.4 µM
GI50 (OVCAR-4 ovarian): 2.34 µM
TGI (OVCAR-4 ovarian): 12.7 µM
GI50 (OVCAR-5 ovarian): 4.91 µM
TGI (OVCAR-5 ovarian): 18.2 µM
GI50 (OVCAR-8 ovarian): 3.05 µM
TGI (OVCAR-8 ovarian): 14.3 µM
GI50 (PC-3 prostate): 2.07 µM
TGI (PC-3 prostate): 7.62 µM
GI50 (RPMI-8226 leukemia): 1.81 µM
TGI (RPMI-8226 leukemia): 5.53 µM
GI50 (RXF 393 renal): 3.17 µM
TGI (RXF 393 renal): 12.8 µM
GI50 (SF-268 CNS): 4.73 µM
TGI (SF-268 CNS): 30 µM
GI50 (SF-539 CNS): 4.23 µM
TGI (SF-539 CNS): 14.9 µM
GI50 (SK-MEL-2 melanoma): 2.4 µM
TGI (SK-MEL-2 melanoma): 5.67 µM
GI50 (SK-MEL-28 melanoma): 4.18 µM
TGI (SK-MEL-28 melanoma): 15.3 µM
GI50 (SK-MEL-5 melanoma): 1.91 µM
TGI (SK-MEL-5 melanoma): 4.21 µM
GI50 (SK-OV-3 ovarian): 5.08 µM
TGI (SK-OV-3 ovarian): 16.8 µM
GI50 (SN12C renal): 4.74 µM
TGI (SN12C renal): 18.7 µM
GI50 (SNB-19 CNS): 5.41 µM
TGI (SNB-19 CNS): 20.6 µM
GI50 (SNB-75 CNS): 2.32 µM
TGI (SNB-75 CNS): 8.22 µM
GI50 (SR leukemia): 2.28 µM
TGI (SR leukemia): 7.62 µM
GI50 (SW-620 colon): 3.27 µM
TGI (SW-620 colon): 12.3 µM
GI50 (T-47D breast): 4.04 µM
TGI (T-47D breast): 16.9 µM
GI50 (TK-10 renal): 3.31 µM
TGI (TK-10 renal): 11.2 µM
GI50 (U251 CNS): 2.79 µM
TGI (U251 CNS): 11.2 µM
GI50 (UACC-257 melanoma): 3.01 µM
TGI (UACC-257 melanoma): 11.8 µM
GI50 (UACC-62 melanoma): 3.72 µM
TGI (UACC-62 melanoma): 14.3 µM
GI50 (UO-31 renal): 2.81 µM
TGI (UO-31 renal): 11.1 µM
